# Laboratory results: publication PMC8256334, “Simultaneous Determination of a Novel PD-L1 Inhibitor, IMMH-010, and Its Active Metabolite, YPD-29B, in Rat Biological Matrices by Polarity-Switching Liquid Chromatography-Tandem Mass Spectrometry: Application to ADME Studies” (Frontiers in Pharmacology, 2021)
# Where two headings read alike, the source gives them in different places.
# What was measured:
# [1] = Tissue distribution study in rats; type: in vivo, Sprague-Dawley rats; details: for concentration in adrenal gland / concentration in brain / concentration in heart / concentration in kidney / concentration in liver / concentration in lung / concentration in lymph / concentration in plasma / concentration in spleen / concentration in thymus: n = 5; for Kp at 0.25 h / Kp at 0.5 h / Kp at 4 h: female, Sprague-Dawley, rat, oral, i.g. 10 mg/kg IMMH-010 maleate, read-out: T/P (tissue-to-plasma partition); for concentrations in tissues at 12 h: rat tissues, 12 h after oral 10 mg/kg IMMH-010 maleate; for tissues of main distribution: rats, oral 10 mg/kg IMMH-010 maleate
# Protocol: Female Sprague-Dawley rats (200 ± 20 g, Vital River, Beijing, China) were kept in standard environmental conditions. Rats were fasted overnight with free access to water and randomly assigned to different groups before the experiments. All animal protocols were approved by the Institute Animal Care and Welfare Committee of the Institute of Materia Medica, Chinese Academy of Medical Sciences and Peking Union Medical College.
# The tissue distribution study was performed 15 min, 30 min, 4 h and 12 h after i. g. administration of 10 mg/kg IMMH-010 maleate. Blood was collected and centrifuged at 5,000 rpm for 10 min. The heart, liver, brain, spleen, lung, kidney, adrenal gland, thymus, and lymph were harvested immediately. The tissues were washed with normal saline and blotted dry with filter paper. All samples were stored at -20°C before analysis.
# [2] = system: various carcinoma xenograft models; details: cited from earlier work
# [3] = adrenal gland, time 0.25 (15 min) after i.g. 10 mg/kg IMMH-010 maleate
# [4] = adrenal gland, time 0.5 (30 min) after i.g. 10 mg/kg IMMH-010 maleate
# [5] = adrenal gland, time 4 (4 h) after i.g. 10 mg/kg IMMH-010 maleate
# [6] = brain, time 0.25 (15 min) after i.g. 10 mg/kg IMMH-010 maleate
# [7] = brain, time 0.5 (30 min) after i.g. 10 mg/kg IMMH-010 maleate
# [8] = brain, time 4 (4 h) after i.g. 10 mg/kg IMMH-010 maleate
# [9] = heart, time 0.25 (15 min) after i.g. 10 mg/kg IMMH-010 maleate
# [10] = heart, time 0.5 (30 min) after i.g. 10 mg/kg IMMH-010 maleate
# [11] = heart, time 4 (4 h) after i.g. 10 mg/kg IMMH-010 maleate
# [12] = kidney, time 0.25 (15 min) after i.g. 10 mg/kg IMMH-010 maleate
# [13] = kidney, time 0.5 (30 min) after i.g. 10 mg/kg IMMH-010 maleate
# [14] = kidney, time 4 (4 h) after i.g. 10 mg/kg IMMH-010 maleate
# [15] = liver, time 0.25 (15 min) after i.g. 10 mg/kg IMMH-010 maleate
# [16] = liver, time 0.5 (30 min) after i.g. 10 mg/kg IMMH-010 maleate
# [17] = liver, time 4 (4 h) after i.g. 10 mg/kg IMMH-010 maleate
# [18] = lung, time 0.25 (15 min) after i.g. 10 mg/kg IMMH-010 maleate
# [19] = lung, time 0.5 (30 min) after i.g. 10 mg/kg IMMH-010 maleate
# [20] = lung, time 4 (4 h) after i.g. 10 mg/kg IMMH-010 maleate
# [21] = lymph, time 0.25 (15 min) after i.g. 10 mg/kg IMMH-010 maleate
# [22] = lymph, time 0.5 (30 min) after i.g. 10 mg/kg IMMH-010 maleate
# [23] = lymph, time 4 (4 h) after i.g. 10 mg/kg IMMH-010 maleate
# [24] = time 0.25 (15 min) after i.g. 10 mg/kg IMMH-010 maleate
# [25] = time 0.5 (30 min) after i.g. 10 mg/kg IMMH-010 maleate
# [26] = time 4 (4 h) after i.g. 10 mg/kg IMMH-010 maleate
# [27] = spleen, time 0.25 (15 min) after i.g. 10 mg/kg IMMH-010 maleate
# [28] = spleen, time 0.5 (30 min) after i.g. 10 mg/kg IMMH-010 maleate
# [29] = spleen, time 4 (4 h) after i.g. 10 mg/kg IMMH-010 maleate
# [30] = thymus, time 0.25 (15 min) after i.g. 10 mg/kg IMMH-010 maleate
# [31] = thymus, time 0.5 (30 min) after i.g. 10 mg/kg IMMH-010 maleate
# [32] = thymus, time 4 (4 h) after i.g. 10 mg/kg IMMH-010 maleate
compound,measurement,setting,value
"CC(C)OC(=O)C(CO)NCc1cc(Cl)c(OCc2cccc(-c3ccccc3)c2Br)cc1OCc1cccnc1 (centres unmarked) [IMMH-010, 2-[4-(2-bromo-biphenyl-3-ylmethoxy)-5-chloro-2-(pyridin-3-ylmethoxy)-benzylamino]-3-hydroxy-propionic acid isopropyl ester]",concentration in adrenal gland,[1]; [3],80.8 ± 47.4 ng/ml or ng/g
same,concentration in adrenal gland,[1]; [4],204 ± 132 ng/ml or ng/g
same,concentration in adrenal gland,[1]; [5],41.3 ± 6.9 ng/ml or ng/g
same,concentration in brain,[1]; [6],6.22 ± 0.34 ng/ml or ng/g
same,concentration in brain,[1]; [7],3.66 ± 3.35 ng/ml or ng/g
same,concentration in brain,[1]; [8],BLQ
same,Kp at 0.25 h,[1]; adrenal gland,25
same,Kp at 0.5 h,[1]; adrenal gland,51.1
same,Kp at 0.25 h,[1]; brain,1.9
same,Kp at 0.5 h,[1]; brain,0.9
same,Kp at 0.25 h,[1]; heart,5.4
same,Kp at 0.5 h,[1]; heart,9.5
same,Kp at 0.25 h,[1]; liver,3.8
same,Kp at 0.5 h,[1]; liver,6.4
same,Kp at 0.5 h,[1]; lung,0.3
same,Kp at 0.25 h,[1]; lymph,1.7
same,Kp at 0.5 h,[1]; lymph,21.2
same,Kp at 0.25 h,[1]; spleen,0.9
same,Kp at 0.5 h,[1]; spleen,2
same,concentration in heart,[1]; [9],17.3 ± 10.5 ng/ml or ng/g
same,concentration in heart,[1]; [10],38.1 ± 25.8 ng/ml or ng/g
same,concentration in heart,[1]; [11],1.92 ± 2.66 ng/ml or ng/g
same,concentration in kidney,[1]; [12],BLQ
same,concentration in kidney,[1]; [13],BLQ
same,concentration in kidney,[1]; [14],BLQ
same,concentration in liver,[1]; [15],12.4 ± 13.4 ng/ml or ng/g
same,concentration in liver,[1]; [16],25.6 ± 19.8 ng/ml or ng/g
same,concentration in liver,[1]; [17],6.30 ± 5.77 ng/ml or ng/g
same,concentration in lung,[1]; [18],BLQ
same,concentration in lung,[1]; [19],1.37 ± 3.06 ng/ml or ng/g
same,concentration in lung,[1]; [20],BLQ
same,concentration in lymph,[1]; [21],5.46 ± 5.1 ng/ml or ng/g
same,concentration in lymph,[1]; [22],84.6 ± 87.9 ng/ml or ng/g
same,concentration in lymph,[1]; [23],12.5 ± 7.1 ng/ml or ng/g
same,concentration in plasma,[1]; [24],3.23 ± 2.28 ng/ml or ng/g
same,concentration in plasma,[1]; [25],3.99 ± 3.45 ng/ml or ng/g
same,concentration in plasma,[1]; [26],BLQ
same,concentrations in tissues at 12 h,[1],below the LLOQ
same,tissues of main distribution,[1],"adrenal gland, followed by the lymph, heart, liver and spleen"
same,concentration in spleen,[1]; [27],2.98 ± 2.77 ng/ml or ng/g
same,concentration in spleen,[1]; [28],8.08 ± 8.51 ng/ml or ng/g
same,concentration in spleen,[1]; [29],0.848 ± 1.896 ng/ml or ng/g
same,concentration in thymus,[1]; [30],BLQ
same,concentration in thymus,[1]; [31],BLQ
same,concentration in thymus,[1]; [32],BLQ
same,antitumor activity,[2],significant antitumor activity
O=C(O)[C@H](CO)NCc1cc(Cl)c(OCc2cccc(-c3ccccc3)c2Br)cc1OCc1cccnc1 [YPD-29B],concentration in adrenal gland,[1]; [3],15.3 ± 10.8 ng/ml or ng/g
same,concentration in adrenal gland,[1]; [4],39.7 ± 45.3 ng/ml or ng/g
same,concentration in adrenal gland,[1]; [5],BLQ
same,concentration in brain,[1]; [6],BLQ
same,concentration in brain,[1]; [7],BLQ
same,concentration in brain,[1]; [8],BLQ
same,Kp at 0.25 h,[1]; adrenal gland,0.5
same,Kp at 0.5 h,[1]; adrenal gland,0.7
same,Kp at 0.25 h,[1]; heart,0.5
same,Kp at 0.5 h,[1]; heart,0.7
same,Kp at 0.25 h,[1]; kidney,2
same,Kp at 0.5 h,[1]; kidney,4.8
same,Kp at 4 h,[1]; kidney,34.6
same,Kp at 0.25 h,[1]; liver,43.8
same,Kp at 0.5 h,[1]; liver,58.2
same,Kp at 4 h,[1]; liver,40.1
same,Kp at 0.25 h,[1]; lung,1.1
same,Kp at 0.5 h,[1]; lung,2
same,Kp at 4 h,[1]; lung,4.4
same,Kp at 0.25 h,[1]; lymph,1.6
same,Kp at 0.5 h,[1]; lymph,6.8
same,Kp at 4 h,[1]; lymph,9.1
same,Kp at 0.25 h,[1]; spleen,0.5
same,Kp at 0.5 h,[1]; spleen,0.9
same,Kp at 0.5 h,[1]; thymus,0.05
same,Kp at 4 h,[1]; thymus,0.5
same,concentration in heart,[1]; [9],17.3 ± 11.9 ng/ml or ng/g
same,concentration in heart,[1]; [10],39.6 ± 33.7 ng/ml or ng/g
same,concentration in heart,[1]; [11],BLQ
same,concentration in kidney,[1]; [12],64.2 ± 40.4 ng/ml or ng/g
same,concentration in kidney,[1]; [13],265 ± 222 ng/ml or ng/g
same,concentration in kidney,[1]; [14],168 ± 23 ng/ml or ng/g
same,concentration in liver,[1]; [15],"1,403 ± 962 ng/ml or ng/g"
same,concentration in liver,[1]; [16],"3,239 ± 2,833 ng/ml or ng/g"
same,concentration in liver,[1]; [17],195 ± 56 ng/ml or ng/g
same,concentration in lung,[1]; [18],35.7 ± 22.8 ng/ml or ng/g
same,concentration in lung,[1]; [19],109 ± 104 ng/ml or ng/g
same,concentration in lung,[1]; [20],21.4 ± 6.8 ng/ml or ng/g
same,concentration in lymph,[1]; [21],51.5 ± 41.0 ng/ml or ng/g
same,concentration in lymph,[1]; [22],378 ± 451 ng/ml or ng/g
same,concentration in lymph,[1]; [23],44.0 ± 13.9 ng/ml or ng/g
same,concentration in plasma,[1]; [24],32.0 ± 25.2 ng/ml or ng/g
same,concentration in plasma,[1]; [25],55.7 ± 51.6 ng/ml or ng/g
same,concentration in plasma,[1]; [26],4.86 ± 1.39 ng/ml or ng/g
same,concentrations in tissues at 12 h,[1],below the LLOQ
same,tissues of main distribution,[1],"liver, followed by the lymph, kidney, and lung"
same,concentration in spleen,[1]; [27],15.1 ± 10.8 ng/ml or ng/g
same,concentration in spleen,[1]; [28],48.4 ± 47.9 ng/ml or ng/g
same,concentration in spleen,[1]; [29],BLQ
same,concentration in thymus,[1]; [30],BLQ
same,concentration in thymus,[1]; [31],2.74 ± 6.12 ng/ml or ng/g
same,concentration in thymus,[1]; [32],2.23 ± 4.99 ng/ml or ng/g
